Values quoted from earlier work, collected in patent publication US20140271529A1, “ANTIFUNGAL COMPOSITIONS FOR THE TREATMENT OF SECONDARY SKIN AND NAIL INFECTIONS” (ALC Therapeutics, LLC, priority 2013, published 2014).

What was measured:
[1] = 14C-labelled griseofulvin dissolved in the solvent; human skin in vitro
[2] = human, in vivo

| Compound | ratios of penetration of griseofulvin in the various solvents [1] | acute paronychia, patients affected [2] |
| --- | --- | --- |
| C[S+](C)[O-] [DMSO, dimethylsulfoxide] | 60 | – |
| CCO [alcohol] | 3 | – |
| c1ccccc1 [benzene] | 1 | – |
| CN(C)C=O [dimethylformamide] | 7 | – |
| panitumumab | – | ≤ 45% |
